Publication PMC4414346, “Crystal Structure of Allophycocyanin from Marine Cyanobacterium Phormidium sp. A09DM” (PLoS ONE, 2015)

Molecular target: T1, Phormidium APC (allophycocyanin) (Phormidium rubidum, UniProt A0A078K1U6+A0A078K4M9)
T1 construct: gene apcA; native purification from the cyanobacterium; no tags; alpha 18064 Da and beta 18011 Da with chromophore; trimer of alpha-beta monomers (118 kDa); N-methylasparagine in beta; GenBank entries partial (alpha 9-161, beta 1-155), corrected in structure: alpha N10K, R49C, D145N, beta E35K
Assay: X-ray crystallography, […] A
Assay type: binding
Conditions: covalent; one chromophore on Cys-81 of alpha and one on Cys-81 of beta; alpha-chromophore site also lined by beta residues in the trimer; crystals pH 8.5, PEG 6000

## C/C=C1/C(=C/c2[nH]c(/C=C3N=C(/C=C4\NC(=O)C(CC)=C4C)C(C)=C\3CCC(=O)O)c(CCC(=O)O)c2C)NC(=O)[C@@H]1C [phycocyanobilin]
  X-ray crystallography, 2.51 A: One PCB chromophore is covalently bonded to the conserved Cys-81 of α-subunit (α-chromophore)
